Reference: the NIST ThermoML archive (doi:10.1021/acs.jced.7b00875)
± gives the expanded uncertainty stated by the source.

Columns and labels:
[1] = refractive index (Na D-line) (dimensionless); conditions: 293.15 K; 101.33 kPa; Liquid; Standard Abbe refractometry
[2] = Liquid, Ebulliometric method (Recirculating still)

refractive index [1] | vapor or sublimation pressure ([2]; 323.21 K) | vapor or sublimation pressure ([2]; 328.17 K) | vapor or sublimation pressure ([2]; 333.21 K) | vapor or sublimation pressure ([2]; 338.17 K) | vapor or sublimation pressure ([2]; 343.21 K) | vapor or sublimation pressure ([2]; 348.16 K) | Structure (SMILES)
1.3616 ± 0.002 | 29.58 ± 0.97 kPa | 37.53 ± 0.98 kPa | 47.04 ± 1 kPa | 58.6 ± 1.1 kPa | 72.39 ± 1.1 kPa | 88.83 ± 1.1 kPa | CCO [ethanol]
1.4122 ± 0.002 | – | 1.18 ± 0.92 kPa | – | 1.93 ± 0.92 kPa | – | 3.24 ± 0.92 kPa | CCCCCCCCCC [decane]
1.4074 ± 0.002 | 2.417 ± 0.92 kPa | – | 4.027 ± 0.92 kPa | – | 6.331 ± 0.92 kPa | – | CCCCCCCCC [nonane]
